The record followed here is publication PMC12475174 (Scientific Reports, 2025).

Data set [1] deals with Allium cepa root meristem cells. In words: Comet assay. It counts as in vivo. As to conditions: 0.0714 mg/L, 72 h germination.
Data set [2] shares this test system. In words: Chromosomal abnormality, MN and mitotic index test. As to conditions: 0.0714 mg/L, 72 h germination. The format is in vivo.

Marks after values point to notes of the source that are not given here.

`[N-]=[N+]=[N-].[Na+]` [NaN3, sodium azide]: in data set [1], the “Head DNA (%)” value is 25.0 ± 1.35^e %, the Head density was 75.475, the “Head diameter (px)” value is 8.000 px and the “Tail DNA (%)” value is 75.0 ± 1.35^a %. In addition, in data set [1], the Tail density was 196.278, the “Tail length (px)” value was determined as 72.000 px and the Tail moment is listed as 53.981. Besides, in data set [1] (listed as NaN₃), the “Tail DNA (%)” value is listed as 75.0 ± 1.35%. In data set [2] (1.000 cells per group), the Binuclear cell is 71.9 ± 3.95^a, the Bridge is 48.3 ± 4.20^a, the Disorientation was 56.4 ± 4.16^a and the Fragment is recorded as 34.9 ± 3.59^a. In data set [2] (1.000 cells per group), the Micronucleus was 75.7 ± 8.27^a, the Nucleus bud is 41.0 ± 3.81^a, the Sticky chromosome is 72.7 ± 4.74^a and the “Unequal distribution of chromatin” value is listed as 51.5 ± 3.72^a. Also, the Vagrant chromosome in data set [2] (1.000 cells per group) is listed as 67.7 ± 3.82^a. The Micronucleus in data set [2] (1.000 cells per group, listed as NaN₃) amounted to 75.7 ± 8.27. In data set [2] (10.000 cells per group), the “Mitotic index (%)” value is given as 6.75% and the “Mitotic index: number of dividing cells” value is recorded as 675 ± 11.2.
